The results in this text go back to BindingDB's records for doi:10.1016/s0014-5793(96)01132-5 (Cnrs Upr 9023, 1996).

The experiment has as its target 5-hydroxytryptamine receptor 4 (Mus musculus, UniProt P97288).

Molecules are shown by their SMILES. Several values for one entry are separate records, joined by “and”; a condition that tells them apart may be missing. Equal entries are not always repeated. Structures can show the parent of a compound that is named as a salt. Some results are limits rather than exact numbers.

5-hydroxytryptamine receptor 4, sequence (P97288 whole entry): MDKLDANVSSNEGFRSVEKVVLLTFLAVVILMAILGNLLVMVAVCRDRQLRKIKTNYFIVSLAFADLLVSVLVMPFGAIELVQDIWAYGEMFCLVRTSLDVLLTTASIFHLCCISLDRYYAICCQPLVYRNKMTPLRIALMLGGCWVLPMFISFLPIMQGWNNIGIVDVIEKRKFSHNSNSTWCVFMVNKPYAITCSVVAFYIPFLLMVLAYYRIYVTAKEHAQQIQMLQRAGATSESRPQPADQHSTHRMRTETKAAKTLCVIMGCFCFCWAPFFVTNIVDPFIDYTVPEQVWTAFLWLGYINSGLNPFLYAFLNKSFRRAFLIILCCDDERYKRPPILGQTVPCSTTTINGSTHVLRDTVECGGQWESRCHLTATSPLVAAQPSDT

As usually defined, the Ki is a dissociation constant, usually derived from enzyme kinetics or from competition with a known ligand. A higher Ki goes with a looser hold on the target. The molecule `CN1C2CCC1CC(OC(=O)c1c[nH]c3ccccc13)C2` (stereo not given) yielded an inhibitory constant (Ki) of 87.1 nM.
As for `COc1cc(N)c(Cl)cc1C(=O)NC1CCN(CCCC(=O)N2CCC(N(C)C)CC2)CC1OC` (stereo not given) [4-Amino-5-chloro-N-(1-{4-[4-(dimethylamino)-1-piperidinyl]-4-oxobutyl}-3-methoxy-4-piperidinyl)-2-methoxybenzamide], affinity was put at a Ki of 2.88 nM. Compared with the last molecule, the Ki is about 30-fold lower.
The same measure for `COc1cc(N)c(Cl)cc1C(=O)NC1CCN(CCCOc2ccc(F)cc2)CC1OC` (stereo not given) [4-amino-5-chloro-N-(1-(3-(4-fluorophenoxy)propyl)-3-methoxypiperidin-4-yl)-2-methoxybenzamide]: 32.4 nM; for `CCN(CC)CCNC(=O)c1cc(Cl)c(N)cc1OC` [4-amino-5-chloro-N-[2-(diethylamino)ethyl]-2-methoxy-benzamide;hydrochloride]: 891 nM; for `CCn1c(=O)n(C(=O)NC2CC3CCC(C2)N3C)c2ccccc21` (stereo not given) [BIMU 1]: 28.8 nM.
The same measure for `CC(C)n1c(=O)n(C(=O)NC2C[C@H]3CC[C@@H](C2)N3C)c2ccccc21` (stereo not given in full) [BIMU 8]: 40.7 nM; for `COc1ccc2[nH]c(=O)n(C(=O)OC3CC4CCC(C3)N4C)c2c1` (stereo not given) [DAU 6285]: 55 nM; for `Cn1cc(C(=O)OCC2CCN(CCNS(C)(=O)=O)CC2)c2ccccc21` [GR 113808]: 0.2 nM.
`COc1[nH]c2ccc(F)cc2c1C(=O)OCC1CCN(CCNS(C)(=O)=O)CC1` [GR-125487] showed a Ki of 0.02 nM.
The same measure for `COc1cc(N)c(Cl)cc1C(=O)NC1CCN2CCCC1C2` (stereo not given) [NSC_3035240]: 132 nM.
The same measure for `CCN(CC)CCOC(=O)c1cc(Cl)c(N)cc1OC` [SDZ-205557]: 7.76 nM.
In the case of `COc1cc(N)c(Cl)cc1C(=O)NC1CN2CCC1CC2` (stereo not given) [ZACOPRIDE,R], the inhibitory constant (Ki) is 191 nM. Against the preceding molecule, the Ki is about 25-fold higher.
`NCCc1c[nH]c2ccc(O)cc12` [[3H]-5-HT] registered a Ki of 56.2 nM.
The same measure for `NCCc1c[nH]c2ccc(C(N)=O)cc12` [[3H]-5-carboxamidotryptamine]: > 10000 nM and 9770 nM; for `COc1ccc2[nH]cc(CCN)c2c1` [tryptamine, 5-Methoxy]: 229 nM.
